US11913884B2, “Visible light-activated dyes and methods of use thereof” (William Marsh Rice University, priority 2019, dated 2024)

How the values were obtained:
[1] = Singlet oxygen quantum yield determination with DPBF; assay type: physicochemical; conditions: DCM, irradiation 615/30 nm, relative to methylene blue
Text: To determine whether a minimal one atom sulfur-for-oxygen substitution within fluorophores can lead to fluorescence quenching, thio-caged Nile Red (SNile Red, FIG. 1) was synthesized, in which a carbonyl group was replaced with a thiocarbonyl moiety. Treatment of Nile Red with Lawesson's reagent in refluxing benzene produced the desired SNile Red in a yield of 40%. […] Irradiation of SNile Red with red light (615 nm, 0.4 μW cm-2) led to the regeneration of fluorescent Nile Red in a high yield (FIG. 2A). […] The A556/A652 value, representing the ratio of the absorbance maxima of Nile Red and SNile Red, increased from 0.25 to 30 after desulfuration reaction (FIG. 2B). Upon irradiation with red light, the fluorescence intensity of the desulfurated material at 626 nm increased 280-fold, accompanied by a change in fluorescence from dark to red (FIG. 2C). To evaluate the proper light source for SNile Red photoactivation, SNile Red was irradiated with either 470 nm, 615 nm, or 850 nm light for different times and fluorescence intensities at 626 nm were recorded. […] To further characterize the photoactivated product of SNile Red, ^1H NMR and ESI-MS spectral changes were measured in the process of photoactivation (FIG. 2A). […]
Singlet oxygen quantum yields were calculated according to the literature (Bonacin et al., 2009, Adarsh et al., 2010, and Li et al., 2013). […]

[2] = system: differentiated 3T3-L1 adipocytes; test: Photoactivation and photobleaching in living adipocytes (CLSM); assay type: cell-based
Text: Super-resolution imaging based on sequential imaging of a specific region of labeled tissue or cell culture relies on the ability to modulate the fluorescence of fluorophores between dark and bright states (Bates et al., 2007, Sengupta et al., 2014). […] Furthermore, the photoactivation of SNile Red can be achieved using visible light, affording lower phototoxicity and better tissue penetration than use of UV light. […] A 488 nm laser was utilized to activate SNile Red, while a 561 nm laser was used for photobleaching. […] Following irradiation with the 488-nm laser for 80 s, a five-fold increase of fluorescence intensity was detected. Subsequently, photobleaching was performed in the same cells using the 561-nm laser. As shown in FIGS. 13B & 13D, the fluorescence intensity decayed to 10% of its maximum within 360 s continuous scanning. This photoswitching flexibility holds promise for SNile Red utilization in further photoactivatable localization microscopy (PALM) studies. Next, the utility of SNile Red for performing super-resolution imaging of lipid droplets was explored. […] Compared to the conventional widefield fluorescence image (FIG. 13B) and Differential interference contrast (DIC) image (FIGS. 13A-B), the PALM reconstruction outlines a pair of lipid droplets with a resolution beyond the optical diffraction limit (FIGS. 13B &13C). […]

SMILES: CCN(CC)c1ccc2nc3c4ccccc4c(=S)cc-3oc2c1 [SNile Red]
- singlet oxygen quantum yield [1]: 0.36
- fluorescence intensity after photobleaching, of its maximum ([2]; 561-nm laser, within 360 s continuous scanning): 10%
- increase of fluorescence intensity in cells ([2]; irradiation with 488-nm laser for 80 s): five-fold
